Read-outs that look alike come from different tables or passages of the source. Where no end group is shown, it is not given here.
Assays:
[1] = cited from earlier work
[2] = ref Groer et al., 2007; cited from earlier work
δ-ORs = conditions: ref Chiang et al., 2016; Molinari et al., 2010; cited from earlier work
δ-OR = δ-OR (Homo sapiens, UniProt P41143); experiment: Radioligand binding assay: displacement of [^3H]DPDPE
humanδ-OR / β-arrestin 2 = humanδ-OR / β-arrestin 2 (Homo sapiens, UniProt P41143); experiment: β-arrestin 2 recruitment, CHO-humanδ-OR PathHunter cells; format: cell-based; conditions: for efficacy α β-arrestin2: normalized to leu-enkephalin, mean ± SEM
Chain of humanδ-OR / β-arrestin 2 (P41143 whole entry): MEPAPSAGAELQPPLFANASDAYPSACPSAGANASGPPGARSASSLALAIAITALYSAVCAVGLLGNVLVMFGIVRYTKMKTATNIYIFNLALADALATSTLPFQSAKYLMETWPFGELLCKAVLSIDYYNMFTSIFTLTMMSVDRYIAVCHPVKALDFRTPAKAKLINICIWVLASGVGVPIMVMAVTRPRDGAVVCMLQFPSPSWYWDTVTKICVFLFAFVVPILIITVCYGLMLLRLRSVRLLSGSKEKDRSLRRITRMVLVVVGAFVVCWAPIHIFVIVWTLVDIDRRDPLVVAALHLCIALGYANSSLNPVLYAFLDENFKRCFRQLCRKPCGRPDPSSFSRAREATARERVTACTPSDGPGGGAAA

[3] = system: δ opioid receptors (δ-ORs); conditions: synthetic analog of rubiscolin-6; ref Yang et al., 2003b; cited from earlier work

Chain of δ-OR (P41143 whole entry): as above

For `C[C@@H](Cc1ccsc1)NC(=O)NC[C@H](Cc1ccc(O)cc1)N(C)C` [PZM21], the side effect profile ([1]; ref Manglik et al., 2016) is given as “appear to possess a reduced side effect profile”.
For `COc1ccsc1CNCC[C@@]1(c2ccccn2)CCOC2(CCCC2)C1` [TRV130], the side effect profile ([1]; ref DeWire et al., 2013) is listed as “appear to possess a reduced side effect profile”.
For `COC(=O)[C@@H]1C[C@H](OC(=O)c2ccccc2)C(=O)[C@H]2[C@@]1(C)CC[C@H]1C(=O)O[C@H](c3ccoc3)C[C@]21C` [herkinorin], the “G protein bias, in words” value [2] is given as “G protein-biased”.
In the case of DADLE, the “β-arrestin recruitment, in words” value (δ-ORs) is listed as “strongly recruit β-arrestin”.
In the case of DPDPE, the “β-arrestin recruitment, in words” value (δ-ORs) is listed as “strongly recruit β-arrestin”.
For YPLDL [Rubiscolin-5], the Ki (δ-OR) was 3.16 µM, the EC50 (humanδ-OR / β-arrestin 2) was 79.4 µM and the “efficacy α β-arrestin2” value (humanδ-OR / β-arrestin 2) was 15±4.
In the case of YPLDLF [Rubiscolin-6], the Ki (δ-OR) is reported as 1 µM, the EC50 (humanδ-OR / β-arrestin 2) is reported as 7.94 µM and the “efficacy α β-arrestin2” value (humanδ-OR / β-arrestin 2) is reported as 20±3.
For YPLDLV, the “potency and δ-OR selectivity, in words” value [3] is listed as “more potent and δ-OR-selective”.
